Consider three compounds from patent US20200392084A1 (priority 2017, published 2020).

For data set [1] the following is noted: of recipients; cited from earlier work.
Test in data set [2]: not given
This is another data set of the same source.

Where two headings read alike, the source gives them in different places.

As for `NCCCC[C@H](N)C(=O)O.O=C(O)c1cc(/N=N/c2ccc(S(=O)(=O)Nc3ccccn3)cc2)ccc1O` [L-Lysine Salt, sulfasalazine L-lysine (1:1) salt], the “Post-agitation pH” value worked out at 1.91 (pH 1), 5.63 (pH 4.5) and 7.17 (pH 6.8). The “Pre-agitation pH” value stood at 0.76 (pH 1), 4.70 (pH 4.5) and 6.99 (pH 6.8).

On to `Nc1ccc(S(=O)(=O)Nc2ccccn2)cc1` [Sulfapyridine, sulfapyridine], for which the allergic reactions in data set [1] is recorded as 3-8%.

As for `NC(CO)(CO)CO.O=C(O)c1cc(/N=N/c2ccc(S(=O)(=O)Nc3ccccn3)cc2)ccc1O` [tromethamine salt Form A, sulfasalazine tromethamine (1:1) salt form (Form A)], the hygroscopicity result in data set [2] (Example 4) is listed as “hygroscopic”. Further, the moisture absorbed result in data set [2] (at/up to 95% RH) is “over 8 wt %”.
